# Measurements reported in ChEMBL document CHEMBL5321272 (J Med Chem, 2023).
# Calls of active or inactive are those of the source. No cut-off for these calls is given here.
# Tests used:
# [1] = molecular target: Receptor-type tyrosine-protein kinase FLT3 (Homo sapiens) (UniProt P36888); assay: Inhibition of FLT3 in human MV4-11 cells assessed as inhibition of STAT5 phosphorylation at Tyr694 residue measured after 90 mins by western blot analysis; assay type: cell-based; conditions: dose 20-100 nM
# [2] = tested on: Z-138; assay: Antiproliferative activity against human Z138 cells assessed as reduction in cell viability incubated for 72 hrs by CellTiter 96 Aqueous One Solution Cell Proliferation Assay; assay type: functional, cell-based; conditions: Z-138, 72 h
# [3] = Selectivity ratio of IC50 for P70S6K (unknown origin) to IC50 for FLT3-ITD mutant (unknown origin)
# [4] = molecular target: T1, Serine/threonine-protein kinase Chk1 (Homo sapiens) (UniProt O14757); assay: Inhibition of CHK1 in human MV4-11 cells assessed as increase in CHK1 phosphorylation at Ser345 residue at 50 to 200 nM measured after 90 mins by western blot analysis; assay type: cell-based; conditions: dose 50-200 nM
# T1 sequence (whole entry): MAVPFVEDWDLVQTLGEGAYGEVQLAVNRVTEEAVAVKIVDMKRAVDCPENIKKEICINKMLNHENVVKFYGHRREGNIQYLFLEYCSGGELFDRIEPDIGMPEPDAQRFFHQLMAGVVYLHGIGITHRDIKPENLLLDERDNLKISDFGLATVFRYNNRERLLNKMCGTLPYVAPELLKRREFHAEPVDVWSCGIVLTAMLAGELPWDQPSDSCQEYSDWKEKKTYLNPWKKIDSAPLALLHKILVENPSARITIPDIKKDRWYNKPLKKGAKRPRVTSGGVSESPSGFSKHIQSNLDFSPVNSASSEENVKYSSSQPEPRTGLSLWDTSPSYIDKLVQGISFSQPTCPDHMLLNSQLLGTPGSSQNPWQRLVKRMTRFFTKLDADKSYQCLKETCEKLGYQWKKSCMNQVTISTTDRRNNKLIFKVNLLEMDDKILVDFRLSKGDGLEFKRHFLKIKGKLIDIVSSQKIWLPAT
# [5] = molecular target: Voltage-gated inwardly rectifying potassium channel KCNH2 (Homo sapiens, UniProt Q12809); assay: Inhibition of hERG expressed in HEK293 cells assessed as inhibition of channel current amplitude at 100 uM by whole cell patch clamp analysis; assay type: toxicity, cell-based; conditions: hek293, 100 µM
# [6] = tested on: MM1.S; assay: Antiproliferative activity against human MM1.S cells assessed as reduction in cell viability incubated for 72 hrs by CellTiter 96 Aqueous One Solution Cell Proliferation Assay; assay type: functional, cell-based
# [7] = molecular target: Receptor-type tyrosine-protein kinase FLT3 (Homo sapiens, UniProt P36888); assay: Inhibition of wild type FLT3 (unknown origin) using peptide substrate TK-S and ATP as substrate incubated for 1 hr by HTRF assay
# [8] = molecular target: Receptor-type tyrosine-protein kinase FLT3 (Homo sapiens) (UniProt P36888); assay: Inhibition of FLT3 in human MV4-11 cells assessed as inhibition of STAT5 phosphorylation at Tyr694 residue at 20 nM measured after 90 mins by western blot analysis; assay type: cell-based
# [9] = tested on: MOLM-13; assay: Antiproliferative activity against human MOLM-13 cells assessed as reduction in cell viability incubated for 72 hrs by CellTiter 96 Aqueous One Solution Cell Proliferation Assay; assay type: functional, cell-based
# [10] = molecular target: Mast/stem cell growth factor receptor Kit (Homo sapiens, UniProt P10721); assay: Inhibition of c-KIT (unknown origin) using peptide substrate TK-S and ATP as substrate incubated for 1 hr by HTRF assay; assay type: toxicity
# Sequence of Mast/stem cell growth factor receptor Kit (P10721 whole entry): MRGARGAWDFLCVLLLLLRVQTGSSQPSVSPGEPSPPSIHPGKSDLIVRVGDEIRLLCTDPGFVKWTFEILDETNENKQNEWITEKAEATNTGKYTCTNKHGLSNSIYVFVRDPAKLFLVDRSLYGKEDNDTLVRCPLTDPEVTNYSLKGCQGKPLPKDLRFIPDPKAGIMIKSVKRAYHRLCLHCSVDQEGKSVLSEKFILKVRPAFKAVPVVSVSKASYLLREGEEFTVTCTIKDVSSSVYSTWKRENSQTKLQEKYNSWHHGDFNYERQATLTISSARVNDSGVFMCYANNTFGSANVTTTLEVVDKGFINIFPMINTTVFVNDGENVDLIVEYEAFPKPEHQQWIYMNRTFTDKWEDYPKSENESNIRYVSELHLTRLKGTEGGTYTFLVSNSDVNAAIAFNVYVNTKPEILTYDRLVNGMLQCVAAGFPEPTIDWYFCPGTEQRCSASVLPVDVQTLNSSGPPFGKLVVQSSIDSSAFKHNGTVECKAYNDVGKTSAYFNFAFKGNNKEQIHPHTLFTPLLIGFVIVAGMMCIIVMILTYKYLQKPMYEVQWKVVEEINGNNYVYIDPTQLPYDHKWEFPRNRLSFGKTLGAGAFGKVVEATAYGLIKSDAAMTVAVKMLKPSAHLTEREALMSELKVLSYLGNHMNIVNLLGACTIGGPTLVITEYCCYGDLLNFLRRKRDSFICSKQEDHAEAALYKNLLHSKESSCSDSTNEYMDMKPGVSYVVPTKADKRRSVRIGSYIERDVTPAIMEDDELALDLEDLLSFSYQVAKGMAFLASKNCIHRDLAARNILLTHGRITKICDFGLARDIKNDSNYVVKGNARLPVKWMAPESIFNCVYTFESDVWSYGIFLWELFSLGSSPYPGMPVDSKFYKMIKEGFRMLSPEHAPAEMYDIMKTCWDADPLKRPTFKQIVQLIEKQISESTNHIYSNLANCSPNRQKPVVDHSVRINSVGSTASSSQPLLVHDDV
# Sequence of Receptor-type tyrosine-protein kinase FLT3 (Homo sapiens) (P36888 whole entry): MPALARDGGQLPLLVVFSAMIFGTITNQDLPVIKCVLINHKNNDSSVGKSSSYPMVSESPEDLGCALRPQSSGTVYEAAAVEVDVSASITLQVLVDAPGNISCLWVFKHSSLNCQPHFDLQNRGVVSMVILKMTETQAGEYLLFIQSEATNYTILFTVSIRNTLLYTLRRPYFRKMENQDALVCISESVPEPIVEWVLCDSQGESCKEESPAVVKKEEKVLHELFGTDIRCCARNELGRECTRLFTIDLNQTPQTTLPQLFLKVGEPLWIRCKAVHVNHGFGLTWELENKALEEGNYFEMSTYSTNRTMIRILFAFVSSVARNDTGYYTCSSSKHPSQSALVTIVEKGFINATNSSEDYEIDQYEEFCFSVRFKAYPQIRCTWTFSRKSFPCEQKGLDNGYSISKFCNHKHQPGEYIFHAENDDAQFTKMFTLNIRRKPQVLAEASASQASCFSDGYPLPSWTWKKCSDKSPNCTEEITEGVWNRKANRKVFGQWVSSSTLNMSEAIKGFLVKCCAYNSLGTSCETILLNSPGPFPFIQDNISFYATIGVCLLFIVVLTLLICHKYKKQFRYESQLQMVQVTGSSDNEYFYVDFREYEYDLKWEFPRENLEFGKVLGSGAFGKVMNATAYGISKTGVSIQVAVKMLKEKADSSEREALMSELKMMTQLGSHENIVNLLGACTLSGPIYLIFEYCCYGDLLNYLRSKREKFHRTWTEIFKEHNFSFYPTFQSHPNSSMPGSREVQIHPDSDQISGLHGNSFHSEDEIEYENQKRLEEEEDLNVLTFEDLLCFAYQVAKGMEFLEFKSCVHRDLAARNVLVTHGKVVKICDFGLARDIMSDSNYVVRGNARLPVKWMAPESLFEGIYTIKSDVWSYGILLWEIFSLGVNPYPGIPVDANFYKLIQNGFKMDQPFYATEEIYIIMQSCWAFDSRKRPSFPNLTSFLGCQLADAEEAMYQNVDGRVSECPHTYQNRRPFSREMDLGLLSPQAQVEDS
# Sequence of Receptor-type tyrosine-protein kinase FLT3 (P36888 whole entry): as above
# Sequence of Voltage-gated inwardly rectifying potassium channel KCNH2 (Q12809 whole entry): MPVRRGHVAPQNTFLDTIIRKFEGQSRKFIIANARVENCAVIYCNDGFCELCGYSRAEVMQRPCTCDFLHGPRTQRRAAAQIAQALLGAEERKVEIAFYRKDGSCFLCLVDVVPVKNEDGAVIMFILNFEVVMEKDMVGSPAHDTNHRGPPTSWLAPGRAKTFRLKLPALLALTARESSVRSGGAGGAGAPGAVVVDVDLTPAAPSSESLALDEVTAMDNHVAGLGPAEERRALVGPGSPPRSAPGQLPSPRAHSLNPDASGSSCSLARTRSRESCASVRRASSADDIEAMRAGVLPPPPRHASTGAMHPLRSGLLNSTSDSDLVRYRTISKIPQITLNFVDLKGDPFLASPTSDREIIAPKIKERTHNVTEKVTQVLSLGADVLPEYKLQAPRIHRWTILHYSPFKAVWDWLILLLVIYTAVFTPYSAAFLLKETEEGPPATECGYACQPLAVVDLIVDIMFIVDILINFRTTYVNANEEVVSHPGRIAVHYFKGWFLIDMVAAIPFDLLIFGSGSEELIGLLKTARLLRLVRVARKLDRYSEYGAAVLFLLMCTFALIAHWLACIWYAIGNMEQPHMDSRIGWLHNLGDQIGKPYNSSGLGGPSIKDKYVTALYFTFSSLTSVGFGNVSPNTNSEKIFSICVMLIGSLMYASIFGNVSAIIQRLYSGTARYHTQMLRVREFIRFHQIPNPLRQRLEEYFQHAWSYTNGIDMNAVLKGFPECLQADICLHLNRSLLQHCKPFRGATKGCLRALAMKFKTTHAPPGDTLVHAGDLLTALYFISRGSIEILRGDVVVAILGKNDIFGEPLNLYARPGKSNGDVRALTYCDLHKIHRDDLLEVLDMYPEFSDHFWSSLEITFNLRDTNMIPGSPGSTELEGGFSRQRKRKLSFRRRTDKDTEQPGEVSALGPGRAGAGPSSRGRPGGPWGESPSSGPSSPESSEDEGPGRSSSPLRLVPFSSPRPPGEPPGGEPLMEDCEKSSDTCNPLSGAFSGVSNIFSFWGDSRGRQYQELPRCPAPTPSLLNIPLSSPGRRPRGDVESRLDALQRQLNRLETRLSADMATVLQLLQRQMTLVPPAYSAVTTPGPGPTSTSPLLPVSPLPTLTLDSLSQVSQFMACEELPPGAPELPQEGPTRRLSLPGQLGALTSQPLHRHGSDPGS
structure (smiles),measurement,setting,value
CC(C)(O)CC(=O)N1CCc2cc(Nc3ncc(C(F)(F)F)c(N[C@H]4CC[C@@H](N)CC4)n3)ccc2C1,inhibition,[1],Dose-Dependent Effect
same,IC50,[2],115 nM
same,Ratio IC50,[3],> 100
same,inhibition,[4],Active
same,inhibition (INH),[5],Active
same,Activity,[6],inactive
same,IC50,[7],< 10 nM
same,inhibition,[8],100%
same,Activity,[9],Active
same,IC50,[10],1870 nM
